Experimental data published in US20110111396A1, “BIOMARKERS FOR MONITORING THE TREATMENT BY QUINAZOLINONE COMPOUNDS” (priority 2007, published 2011).

Assays:
Assay type in all cases: cell-based
[1] = test system: NHL cell lines (Namalwa, Rec-1, Jeko-1, Granta-519, JVM-2, DB); test: NHL cell proliferation by 3H-thymidine incorporation assay
Experimental: As detailed below, the effect of the administration of a quinazolinone compound on several types of NHL cells was determined after 3 days using 3H-thymidine incorporation, microbead array technology and real time PCR.
To better understand how the effectiveness of quinazolinone compound administration varies among different cancer cell types, the quinazolinone compound 3-(2,5-dimethyl-4-oxo-4H-quinazolin-3-yl)-piperidine-2,6-dione was tested in vitro for its anti-proliferative effect in several NHL cell lines after 3 days of treatment.
(§1) NHL cell proliferation was assessed by 3H-thymidine incorporation assay. Briefly, cells were cultured in 96 well cell culture plates in complete RPMI-1640 medium in the presence and absence of drugs. Following incubation at 37° C. for 3 days, 1μCi 3H-thymidine was added to each well for the last 5 hours of incubation. The 3H incorporation of each well was then measured. The six tested cell lines were Namalwa, Rec-1, Jeko-1, Granta-519, JVM-2, and DB.

[2] = test system: DB cell line; test: NHL cell proliferation by 3H-thymidine incorporation assay, DB cell line; settings: DB cells with t(14;18)
Experimental: as §1
Thus t(14;18) may be a negative prognostic factor in predicting clinical response to 3-(2,5-dimethyl-4-oxo-4H-quinazolin-3-yl)-piperidine-2,6-dione. Thus, SPARC gene expression can be used as a biomarker of NHL or MCL tumor response to quinazolinone compounds such as 3-(2,5-dimethyl-4-oxo-4H-quinazolin-3-yl)-piperidine-2,6-dione.

[3] = test system: SPARC mRNA; test: SPARC mRNA level in NHL cells by real-time RT-PCR; settings: sensitive NHL cells; 24 hours of incubation; 10 μM; FIG. 2
Experimental: The effect of the administration of 3-(2,5-dimethyl-4-oxo-4H-quinazolin-3-yl)-piperidine-2,6-dione in various NHL cells was measured after 24 hours of incubation, using real-time RT-PCR (FIG. 2).
The following exemplary procedures can be used. Upon purification of total RNA, real-time PCR is performed with 100 ng of total RNA, using an Applied Biosystems 7500 instrument (Applied Biosystems, Foster City, Calif.) using TaqMan Sequence Detection chemistry which uses a fluorogenic probe (FAM) to enable the detection of a specific PCR product as it accumulates during PCR. Samples are prepared in triplicate in 50 μl reaction volumes. […]
TaqMan® Gene Expression Assays are pre-formulated gene expression assays for rapid, reliable detection and quantification of human, mouse and rat mRNA transcripts. […] Data is analyzed using 7500 Real-Time PCR System Sequence Detection software v1.3 using the comparative CT relative quantification calculation method. The output is expressed as a fold-change of expression levels. The threshold level is selected to be automatically determined by the software and is set to be above the baseline but sufficiently low to be within the exponential growth region of an amplification curve. The cycle number at which the fluorescence signal associated with a particular amplicon accumulation crosses the threshold is referred to as the CT.

| SMILES | order of sensitivity of the various NHL cell lines [1] | anti-proliferative activity against NHL cells ([1]; 3 days of treatment, 0.01, 0.1, 1, 10 and 100 μM, FIG. 1) | dose dependence of the anti-proliferative effect ([1]; ranges tested 0, 0.01, 0.1, 1, 10 and 100 μM, especially in MCL cell lines) | response of DB cell line (rate of cell proliferation) [2] | expression of SPARC mRNA [3] |
| --- | --- | --- | --- | --- | --- |
| Nc1cccc2c1CN(C1CCC(=O)NC1=O)C2=O (centres unmarked) [1-oxo-2-(2,6-dioxopiperidin-3-yl)-4-aminoisoindoline, reference compound] | Namalwa (Burkitt's lymphoma)>Jeko-1>Rec-1>JVM-2>Granta-519 (all Mantle Cell Lymphomas, MCL)>DB |  |  |  |  |
| Cc1cccc2nc(C)n(C3CCC(=O)NC3=O)c(=O)c12 (centres unmarked) [3-(2,5-dimethyl-4-oxo-4H-quinazolin-3-yl)-piperidine-2,6-dione] |  | demonstrated anti-proliferative activity | dose dependent | increased rate of cell proliferation | increased the expression of SPARC mRNA |
